The values that follow come from PMC11351612, “Heteronuclear Complexes with Promising Anticancer Activity against Colon Cancer” (Biomedicines, 2024).

A short description of series [1]: Solubility in water at 25 °C.
In series [2] the test system is Caco-2/TC7 cells. Kind of series: Cell cycle analysis (PI, flow cytometry), Caco-2/TC7. The note with it: Caco-2/TC7, IC50 concentration, 48 h and 72 h. It counts as cell-based, human. The procedure: (§1) Cell cycle analysis. After treatment, the cells were fixed in 70% ice-cold ethanol and stored at 4 °C for 24 h. After centrifugation, the cells were rehydrated in PBS (phosphate-buffered saline) and stained with propidium iodide (PI, 50 μg/mL) solution containing RNase A (100 μg/mL). PI-stained cells were analysed for DNA content in a FACSARRAY BD equipped with an argon ion laser. […] Cell cycle distribution was determined on a linear scale. The percentage of cells in cycle phases was determined using MODIFIT 3.0 verity software.
(§2) To investigate the influence of the heteronuclear derivative 1 on the cell cycle distribution of Caco-2 cells, propidium iodide-stained cells were analysed by flow cytometry. The distribution of cells found in each stage of the cell cycle for the control samples was sufficiently homogeneous (Figure 4). For both cell lines, samples analysed after 48 h of incubation had 22% of the cells in the G0/G1 phase, ca. 45% of cells in the synthesis phase, and approximately 30% of cells undergoing the G2 phase or cell division. The low percentage of cells observed in the G0 and G1 phases may be indicative of elevated proliferation and an uncontrolled growth of cancerous cells. It would be of interest to ascertain whether the complexes chosen for the treatments could arrest the cell cycle at phases preceding cell division, thereby inhibiting the proliferation of cancer cells.
(In flow cytometry, cells or beads pass a laser one at a time.)

Series [3] deals with Caco-2/TC7 cells. Kind of series: Annexin V/propidium iodide apoptosis assay, Caco-2/TC7. Particulars: Caco-2/TC7, IC50 concentration; vehicle 12%. It is filed as cell-based, human. The method, then:
(§3) Study of cell death. After the appropriate incubation, cells were collected and stained with annexin V-FTIC, according to the manufacturer’s instructions. A negative control was prepared, containing unreacted cells to define the basal level of apoptotic and necrotic or dead cells. After incubation, the cells were transferred to flow-cytometry tubes and washed twice with temperate phosphate-buffered saline (PBS), suspended in 100 μL annexin V binding buffer (10 mM Hepes/NaOH, pH 7.4, 140 mM NaCl, 2.5 mM CaCl2), then 5 μL of annexin V-FITC, and 5 μL of PI was added to each 100 μL of cell suspension. After incubation for 15 min at room temperature in the dark, 400 μL of 1× annexin binding buffer was added and analysed by flow cytometry within one hour. The signal intensity was measured using a FACSARIA BD and analysed using FASCDIVA BD.
(§4) This inhibition of apoptosis produces a fast growth and proliferation of cancerous cells. The population of early and late apoptotic cells increased to 35% after treatment with complex 1 in comparison with the vehicle-treated cells (12%). […] Additionally, the effect observed after treating the cells with a dosage equal to the IC50 concentration is time-dependent. […]

The subject of series [4] is pIRES2-EGFP (5308 pb) plasmid DNA. Kind of series: Gel electrophoretic mobility of plasmid DNA. It counts as binding. The note with it: metal-to-base pair ratios 0.5, 1, 2; 0.8% agarose gel. The method, then: Adducts with pIRES2-EGFP (5308 pb) plasmid DNA (Catalog #6029-1) were prepared by adding the required volume of a freshly prepared solution of metal complexes in MilliQ water. The concentration of pIRES2-EGFP in the reaction mixture was 117 ng/µL, and the complexes’ concentration was varied to give different metal-to-base pair stoichiometries (0.5, 1 and 2). The mobility of the metal complex-treated pIRES2-EGFP samples was analysed by gel electrophoresis on a 0.8% (w/v) agarose gel (Boehringer-Mannheim, Mannheim, Germany) at […] at 25 °C in Tris-acetate/EDTA buffer. The gel was stained for 30 min in […] (w/v) ethidium bromide and the bands were visualised with a UVP gel scanner.
In addition, the interaction of both complexes with DNA was also studied by their ability to modify the electrophoretic mobility of the pIRES2-EGFP (5308 pb) plasmid DNA and compared to cisplatin (Figure 7).

The subject of series [5] is Caco-2/PD7 cells. Description: Cell cycle analysis (PI, flow cytometry), Caco-2/PD7. It counts as cell-based, human. The note with it: Caco-2/PD7, IC50 concentration, 72 h. The procedure:
as §1, §2

Series [6] deals with Caco-2/PD7 cells. Kind of series: Annexin V/propidium iodide apoptosis assay, Caco-2/PD7. The note with it: Caco-2/PD7, IC50 concentration, 72 h; control 35.8%. It is filed as cell-based, human. The method, then:
as §3, §4

For series [7], the system named is thioredoxin reductase (TrxR). Particulars: undifferentiated Caco-2/TC7, IC50 concentration, 24 h incubation. The procedure: The Caco-2 cell line (TC7 clone) was seeded in a 25 cm^2 flask (2 × 10^6). […] The procedural guidelines of the supplied kit were followed. […] The outcomes were presented as a percentage representing the TrxR activity relative to the control.

Consider [Cu{Au(Spy)(PTA)}2]PF6 [compound 1], for which, in series [1], the “S 25 °C, H2O” value is reported as under 0.5 g/L. For the same substance, the “Effect on cell cycle distribution” value in the series on Caco-2/TC7 cells [2] was “arrest of the cell cycle in Caco-2/TC7 cells within the G0/G1 phases”; with Caco-2/PD7 cells [5], “not enough living cells being found for the analysis”. For the same substance, the “Population of early and late apoptotic cells” value in the series on Caco-2/TC7 cells [3] is recorded as 35%. Further, in series [4], the “Effect on electrophoretic mobility of plasmid DNA” value is recorded as “significant effect on the mobility”. Moreover, the “Apoptotic cells (early + late apoptosis)” value with Caco-2/PD7 cells [6] is recorded as 62.4%. Moreover, the “Effect on TrxR activity” value in series [7] is on record as “inhibited TrxR activity”.
